What was measured:
Format in all cases: in vivo
Plasmopara viticola = test: Test B: preventive spray on grape seedlings, grape downy mildew, disease rating
Text: General protocol for preparing test solutions for Tests AG: the test compounds were first dissolved in acetone in an amount equal to 3% of the final volume and then suspended at the desired concentration (in ppm) in acetone and purified water (50/50 mix by volume) containing the surfactant PEG400 (polyhydric alcohol esters). The resulting test suspensions were then used in Tests AG. Compounds were sprayed at a concentration of 250 ppm or other indicated rate to the point of run-off on the test plants. The test solution was sprayed to the point of run-off on grape seedlings. […] A dash (-) indicates no test results.

Botrytis cinerea = test: Test C: preventive spray on tomato seedlings, gray mold, visual disease rating
Method in brief: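 Compounds predissolved in acetone (3% of final volume), then suspended in 50/50 acetone/water with PEG400 surfactant. Sprayed preventively at 250 ppm or other indicated rate to run-off on tomato seedlings before Botrytis challenge; disease rated visually.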

Phytophthora infestans = test: whole plant or invertebrate; details: tomato seedlings
Zymoseptoria tritici = test: Test E: preventive spray on wheat seedlings, wheat leaf blotch, visual disease rating
Method in brief: (§1)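 Preventive foliar spray of wheat seedlings to run-off, at 250 ppm or other indicated rate. Compounds dissolved in acetone (3% of final volume), suspended in 50/50 acetone–water with PEG400 surfactant. Disease rated visually.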

[1] = tested on: Puccinia recondita f. sp. tritici; test: Test F: preventive spray on wheat seedlings, wheat leaf rust, visual disease rating
Method in brief: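 Compounds were dissolved in acetone/water (50/50) with PEG400 surfactant and sprayed to run-off on wheat seedlings, at 250 ppm unless another rate is indicated. The next day, seedlings were inoculated with a Puccinia recondita f. sp. tritici spore suspension; disease was rated visually.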

[2] = tested on: Erysiphe graminis f. sp. tritici; test: Test G: preventive spray on wheat seedlings, wheat powdery mildew, visual disease rating
Method in brief: as §1

Phakopsora pachyrhizi = test: Test A: preventive spray on soybean seedlings, Asian soybean rust, visual disease rating
[3] = 250 ppm, 100 = 100% disease control, 0 = no control

Compound | Test B disease control rating (Plasmopara viticola; [3]) [%] | Test C disease control rating (Botrytis cinerea; [3]) [%] | Test D disease control rating (Phytophthora infestans; [3]) [%] | Test E disease control rating (Zymoseptoria tritici; [3]) [%] | Test F disease control rating [1, 3] [%] | Test G disease control rating [2, 3] [%] | Test A disease control rating (Phakopsora pachyrhizi; [3]) [%] | Test A disease control rating (Phakopsora pachyrhizi; 50 ppm) [%] | Test B disease control rating (Plasmopara viticola; 50 ppm) [%] | Test C disease control rating (Botrytis cinerea; 50 ppm) [%] | Test D disease control rating (Phytophthora infestans; 50 ppm) [%] | Test E disease control rating (Zymoseptoria tritici; 50 ppm) [%] | Test F disease control rating ([1]; 50 ppm) [%] | Test G disease control rating ([2]; 50 ppm) [%]
Cc1ccc(NC(=O)c2c(O)cnn(C)c2=O)cc1 [Compound 93] | 94 | 15 | 93 | 65 | 91 | 87 | – | – | – | – | – | – | – | –
CSc1cnn(C)c(=O)c1C(=O)Nc1ccc(OC(F)(F)F)cc1 [Compound 109] | 0 | 0 | 0 | 0 | 0 | 55 | 0 | – | – | – | – | – | – | –
Cn1ncc([S+](C)[O-])c(C(=O)Nc2ccc(OC(F)(F)F)cc2)c1=O (stereo not drawn) [Compound 110] | – | – | – | – | – | – | – | 92 | 0 | 0 | 0 | 88 | 74 | 0
Cn1ncc(S(C)(=O)=O)c(C(=O)Nc2ccc(OC(F)(F)F)cc2)c1=O [Compound 111] | 0 | 0 | 9 | 93 | 96 | 0 | 98 | – | – | – | – | – | – | –
Cn1ncc([O-])c(C(=O)Nc2ccc(S(F)(F)(F)(F)F)cc2)c1=O.[Na+] [Compound 113] | 96 | 0 | 81 | 79 | 94 | 90 | 73 | – | – | – | – | – | – | –
Cn1ncc(O)c(C(=O)Nc2cnc(Cl)cn2)c1=O [Compound 114] | 90 | 0 | 80 | 55 | 95 | 0 | 39 | – | – | – | – | – | – | –
COc1ccc(Cn2ncc(O)c(C(=O)Nc3ccc(OC(F)(F)F)cc3)c2=O)cc1 [Compound 115] | 0 | 0 | 0 | 26 | 68 | 0 | 0 | – | – | – | – | – | – | –
Cn1ncc(OS(=O)(=O)Cc2ccccc2)c(C(=O)Nc2ccc(OC(F)(F)F)cc2)c1=O [Compound 116] | 99 | 0 | 0 | 60 | 97 | 0 | 25 | – | – | – | – | – | – | –
Cc1cc(C(F)(F)F)ccc1NC(=O)c1c(O)cnn(C)c1=O [Compound 117] | 100 | 0 | 97 | – | 99 | 90 | 0 | – | – | – | – | – | – | –
O=C(Nc1ccc(OC(F)(F)F)cc1)c1c(O)cnn(CC(F)(F)F)c1=O [Compound 119] | 100 | 0 | 87 | 73 | 97 | 99 | – | – | – | – | – | – | – | –
O=C(Nc1ccc(OC(F)(F)F)cc1)c1c(O)cnn(C2CC2)c1=O [Compound 120] | 98 | 0 | 97 | – | 96 | 89 | 13 | – | – | – | – | – | – | –
COC(=O)c1ccc(NC(=O)c2c(O)cnn(C)c2=O)cc1 [Compound 121] | 86 | 0 | 99 | 14 | 80 | 0 | 0 | – | – | – | – | – | – | –
Cn1ncc(O)c(C(=O)Nc2ccccc2C(F)(F)F)c1=O [Compound 122] | 98 | 0 | 95 | 96 | 86 | 96 | 0 | – | – | – | – | – | – | –
Cn1ncc(O)c(C(=O)Nc2ccc(Cl)cc2F)c1=O [Compound 123] | 90 | 63 | 90 | 91 | 100 | 92 | 81 | – | – | – | – | – | – | –
CONc1cnn(C)c(=O)c1C(=O)Nc1ccc(OC(F)(F)F)cc1 [Compound 127] | 23 | 0 | 0 | 27 | 0 | 0 | 0 | – | – | – | – | – | – | –
CN(C)c1cnn(C)c(=O)c1C(=O)Nc1ccc(C(F)(F)F)cc1F [Compound 128] | 100 | 0 | 67 | – | 68 | 0 | 79 | – | – | – | – | – | – | –
Cn1ncc(O)c(C(=O)Nc2ccc(S(=O)(=O)C(F)(F)F)cc2)c1=O [Compound 129] | 98 | 0 | 82 | – | 89 | 81 | 0 | – | – | – | – | – | – | –
CC(C)n1ncc(O)c(C(=O)Nc2ccc(OC(F)(F)F)cc2)c1=O [Compound 131] | 98 | 0 | 99 | 51 | 91 | 100 | – | – | – | – | – | – | – | –
Cn1ncc(OC/C=C/c2ccccc2)c(C(=O)Nc2ccc(OC(F)(F)F)cc2)c1=O [Compound 132] | 25 | 0 | 17 | 50 | 91 | 97 | 0 | – | – | – | – | – | – | –
Cn1ncc(O)c(C(=O)Nc2c(Cl)cc(OC(F)(F)F)cc2Cl)c1=O [Compound 133] | 100 | 0 | 89 | 100 | 86 | 100 | – | – | – | – | – | – | – | –
Cn1ncc(O)c(C(=O)Nc2ccc(F)cc2Cl)c1=O [Compound 134] | 92 | 0 | 0 | 45 | 32 | 90 | 75 | – | – | – | – | – | – | –
O=C(Nc1ccc(OC(F)(F)F)cc1)c1c(O)cn[nH]c1=O [Compound 136] | 100 | 0 | 91 | – | 93 | 0 | 0 | – | – | – | – | – | – | –
Cn1ncc(O)c(C(=O)Nc2ccc(C(F)(F)C(F)(F)F)cc2)c1=O [Compound 138] | 100 | 0 | 99 | 99 | 100 | 99 | – | – | – | – | – | – | – | –
Cn1ncc(O)c(C(=O)Nc2c(Cl)cccc2Cl)c1=O [Compound 141] | 96 | 0 | – | – | 68 | 64 | 50 | – | – | – | – | – | – | –
Cn1ncc(O)c(C(=O)Nc2ccc(F)cc2F)c1=O [Compound 144] | 100 | 0 | 99 | – | 99 | 87 | 0 | – | – | – | – | – | – | –
Cn1ncc(O)c(C(=O)Nc2cccc(Oc3ccccc3)c2)c1=O [Compound 151] | 83 | 0 | 0 | – | 85 | 13 | 0 | – | – | – | – | – | – | –
N-(4-Bromophenyl)-2,3-dihydro-5-hydroxy-2-methyl-3-oxo-4-pyridazinecarboxamide [Compound 75] | 86 | 0 | 93 | 83 | 98 | 13 | – | – | – | – | – | – | – | –

Reference: patent publication US20190133128A1, “Fungicidal pyridazinones” (FMC Corporation, priority 2017, published 2019)
